Data from US8759010B2, “Host cell kinases as targets for antiviral therapies against HCV infection” (INSERM (Institut National de la Sante et de la Recherche …, priority 2008, dated 2014).
Entries after “also recorded” stand apart in the source; their conditions may differ. Like-named read-outs stand apart in the source and are kept apart here.

Columns and labels:
[1] = tested on: HCVpp (genotype 1b) bearing envelope glycoproteins from HCV strains VD, VH, VK, VN; experiment: Entry of patient-derived HCVpp in primary human hepatocytes; type: cell-based; conditions: 10 μM, 1 h prior to infection, FIG. 10C
HCVpp JFH1; genotype 2a = experiment: HCVpp entry in primary human hepatocytes; type: cell-based, HCV; conditions: JFH1-derived HCVpp; inhibitor added 1 h prior to infection; FIG. 9B
[2] = tested on: subgenomic HCV JFH1 replicon; experiment: HCV replication, subgenomic JFH1 replicon, Northern blot; type: cell-based; conditions: Huh7.5 cells electroporated with subgenomic JFH1 replicon RNA, 24 h incubation, FIG. 9C
Text: HEK 293T, Huh7 and Huh7.5.1 cells used in the present study have previously been described (Bartosch, 2003; Barth, 2003; Zhong, 2005). Primary human hepatocytes were isolated and cultured as previously described (David, 1998, which is incorporated herein by reference in its entirety). Subgenomic HCV replicon JFH1-SGR used herein has also previously been described (Kato, 2005).
A 9.7 kb fragment derived from plasmid […] (Wakita, 2005) digested with XbaI and EcoRI was labeled with α^32P-CTP using NEBlot kit (NEB, USA). Northern blotting was performed according to standard protocols (F. M. Ausubel et al., “Current Protocols in Molecular Biology”, John Wiley 1 Sons, Inc., 2007).
Electroporation of RNA derived from plasmids pSGR-JFH1 was performed as previously described (Lan, 2008). Four hours after electroporation, cells were incubated with protein kinase inhibitors in cell culture supernatant for 24 hours. Total RNA was isolate and analyzed by Northern blot analysis of HCV RNA as described (Lohmann, 1999).

[3] = tested on: HCVcc Luc-Jc1, genotype 2a/2a; experiment: microbe, parasite or virus in culture; type: cell-based, HCV; conditions: for IC50: Hepatitis C virus, hepatocytes or hepatocyte-derived cell lines, FIG. 9, read-out: IC50, inhibition of HCV entry and infection
Huh7.5.1 cells = experiment: MTT cell viability, Huh7.5.1 cells; type: cell-based, human; conditions: 10 μM, FIG. 7D
Procedure: (§1) Toxicity Assays. Cytotoxicity effects on cells were assessed in triplicates by analyzing the ability to metabolize 3-(4,5-dimethylthiazol-2-yl)-2,5-diphenyltetrazolium bromide (MTT) (Lan, 2008). For siRNA experiments, MTT was added 3 days after transfection with siRNA for 5 hours. The final concentration of MTT was 0.6 mg/mL. Formazan crystals produced by the cells were solubilized and measured as described (Mosmann, 1983). 2. Identification of Cellular Kinases Involved in HCV Entry Using a Genome-Wide RNAi Kinase HCV Entry Screen

Huh7.5 cells = experiment: MTT cell viability, Huh7.5 cells; type: cell-based, human; conditions: 10 μM, FIG. 7C
Procedure: as §1

HCVpp H77C, genotype 1a = experiment: HCVpp entry in hepatoma cells, luciferase reporter (Example 1); type: cell-based, HCV; conditions: Huh7.5.1 cells, 1 μM or 10 μM inhibitor, 1 h prior to 3 h post-infection, FIG. 3
HCVcc JFH1 = experiment: HCVcc infection of Huh7.5.1 cells, luciferase reporter or RT-PCR of HCV RNA (Example 1); type: cell-based; conditions: 1 μM or 10 μM inhibitor, dose-dependent, FIG. 3
Procedure: Bicistronic plasmid pFK-Luc-Jc1 (Koutsoudakis, 2006) encodes a luciferase reporter gene and a chimeric HCV genome designated Jc1 which consists of J6CF and JFH1 segments. In vitro HCV RNA synthesis and RNA transfection were carried out as previously described (Wakita, 2005). Culture supernatants from transfected cells were cleared and concentrated as previously described using an Amicon Ultra 15 (Millipore, USA) and used directly or were stored at 4° C. or −80° C. Viruses were titrered by using the limiting dilution assay on Huh7.5.1 cells with a few minor modifications and TCID50 values were calculated based on a method previously described (Lindenbach, 2005).
All inhibitors used in this study were obtained from LC Laboratories (USA). Before use, they were dissolved in DMSO and diluted in Huh7.5.1 cell culture medium (Zhong, 2005). Following incubation, HCVpp entry and HCVcc infection were assessed by luciferase reporter gene expression or RT-PCR of HCV RNA in cells as previously reported (Pestka, 2007; Zeisel, 2007).

[4] = achievable plasma concentrations; Hidalgo and Bloedow, 2003; cited from earlier work
[5] = tested on: HCVpp (genotype 1b) bearing envelope glycoproteins from HCV strains VD, VH, VK, VN; experiment: Entry of patient-derived HCVpp in Huh7.5 cells; type: cell-based; conditions: 10 μM, 1 h prior to infection, FIG. 10B
HCVpp = HCVpp entry in primary human hepatocytes (Flavopiridol); conditions: HCVpp strain not stated
[6] = tested on: primary human hepatocytes; experiment: MTT cell viability, primary human hepatocytes; type: cell-based
Procedure: Toxicity Assays. […] For siRNA experiments, MTT was added 3 days after transfection with siRNA for 5 hours. The final concentration of MTT was 0.6 mg/mL. […] 2.

Cc1nc(Nc2ncc(C(=O)Nc3c(C)cccc3Cl)s2)cc(N2CCN(CCO)CC2)n1 [Dasatinib]
Entry of patient-derived HCVpp in primary human hepatocytes [1]: markedly inhibited | HCVpp entry in primary human hepatocytes (HCVpp JFH1; genotype 2a): markedly inhibited | HCV replication [2]: did not inhibit | IC50 [3]: 2000 nM

c1cc(-c2cnn3cc(-c4ccc(OCCN5CCCCC5)cc4)cnc23)ccn1 [Dorsomorphin]
Cell viability (MTT assay) (Huh7.5.1 cells): slightly reduced | Cell viability (MTT assay) (Huh7.5 cells): not diminished

C#Cc1cccc(Nc2ncnc3cc(OCCOC)c(OCCOC)cc23)c1 [Erlotinib]
HCVpp entry (HCVpp H77C, genotype 1a): markedly inhibit | HCVcc infection (HCVcc JFH1): markedly inhibit | mean plasma concentrations [4]: ~4 µM | Entry of patient-derived HCVpp in primary human hepatocytes [1]: markedly inhibited | HCVpp entry in primary human hepatocytes (HCVpp JFH1; genotype 2a): dose-dependently inhibited | Entry of patient-derived HCVpp in Huh7.5 cells [5]: markedly inhibited; also recorded: more potent than Dasatinib | HCV replication [2]: without markedly modulating replication; also recorded: did not inhibit | HCVcc infection ([3]; HCVcc Luc-Jc1, inhibitor added 1 h prior to infection, dose-dependent, FIG. 9A): dose-dependently inhibited; also recorded: markedly inhibited | IC50 ([3]; Hepatocyte): ~500 nM | Inhibitory effect on HCVcc infection by detection of viral RNA using RT-PCR ([3]; data not shown): confirmed

CN1CC[C@H](c2c(O)cc(O)c3c(=O)cc(-c4ccccc4Cl)oc23)[C@H](O)C1 [Flavopiridol]
HCVpp entry in primary human hepatocytes (HCVpp): markedly inhibited | Cytotoxic effects [6]: absence of any detectable cytotoxic effects

COc1cc2ncnc(Nc3ccc(F)c(Cl)c3)c2cc1OCCCN1CCOCC1 [Gefitinib]
HCVpp entry (HCVpp H77C, genotype 1a): markedly inhibit | HCVcc infection (HCVcc JFH1): markedly inhibit

CS(=O)(=O)CCNCc1ccc(-c2ccc3ncnc(Nc4ccc(OCc5cccc(F)c5)c(Cl)c4)c3c2)o1 [Lapatinib]
HCVpp entry (HCVpp H77C, genotype 1a): markedly inhibit | HCVcc infection (HCVcc JFH1): markedly inhibit

N#Cc1cnc2cnc(NCc3cccnc3)cc2c1Nc1ccc(F)c(Cl)c1 [TpI2 kinase inhibitor]
Entry of patient-derived HCVpp in Huh7.5 cells [5]: did not result in a reproducible inhibition

COC[C@H]1OC(=O)c2coc3c2[C@@]1(C)C1=C(C3=O)[C@@H]2CCC(=O)[C@@]2(C)C[C@H]1OC(C)=O [Wortmannin]
HCVpp entry in primary human hepatocytes (HCVpp JFH1; genotype 2a): did not have any effect | Entry of patient-derived HCVpp in Huh7.5 cells [5]: did not inhibit
